Reference: patent publication US4248863A, “Antibiotics saframycins A, B, C, D and E and process for producing the same” (priority 1977, dated 1981)
Values after ≈ are worked out from the molar mass of the structure shown.

Assays:
[1] = test system: Staphylococcus aureus 209P; experiment: Antimicrobial spectrum, MIC (Table 4); assay type: cell-based; details: Staphylococcus aureus, 209P; 1% glucose nutrient agar, 37° C., 24 or 48 hours; read-out: MIC
[2] = test system: Staphylococcus aureus Smith; experiment: Antimicrobial spectrum, MIC (Table 4); assay type: cell-based; details: Staphylococcus aureus; 1% glucose nutrient agar, 37° C., 24 or 48 hours; read-out: MIC
Staphylococcus albus = experiment: Antimicrobial spectrum, MIC (Table 4); assay type: cell-based; details: Staphylococcus; 1% glucose nutrient agar, 37° C., 24 or 48 hours; read-out: MIC
Staphylococcus citreus = experiment: Antimicrobial spectrum, MIC (Table 4); assay type: cell-based; details: Staphylococcus; 1% glucose nutrient agar, 37° C., 24 or 48 hours; read-out: MIC
Streptococcus faecalis = experiment: Antimicrobial spectrum, MIC (Table 4); assay type: cell-based; details: Enterococcus faecalis; 1% glucose nutrient agar, 37° C., 24 or 48 hours; read-out: MIC
Streptococcus pyogenes = experiment: Antimicrobial spectrum, MIC (Table 4); assay type: cell-based; details: Streptococcus pyogenes; blood agar, 37° C., 24 or 48 hours; read-out: MIC
[3] = test system: Streptococcus pyogenes 090R; experiment: Antimicrobial spectrum, MIC (Table 4); assay type: cell-based; details: Streptococcus pyogenes, 090R; blood agar, 37° C., 24 or 48 hours; read-out: MIC
[4] = test system: Staphylococcus salivarius; experiment: Antimicrobial spectrum, MIC (Table 4); assay type: cell-based; details: Staphylococcus; 1% glucose nutrient agar, 37° C., 24 or 48 hours; read-out: MIC
Micrococcus luteus = experiment: Antimicrobial spectrum, MIC (Table 4); assay type: cell-based; details: Micrococcus luteus; 1% glucose nutrient agar, 37° C., 24 or 48 hours; read-out: MIC
Bacillus subtilis = experiment: Antimicrobial spectrum, MIC (Table 4); assay type: cell-based; details: Bacillus subtilis; 1% glucose nutrient agar, 37° C., 24 or 48 hours; read-out: MIC
Bacillus cereus = experiment: Antimicrobial spectrum, MIC (Table 4); assay type: cell-based; details: Bacillus cereus; 1% glucose nutrient agar, 37° C., 24 or 48 hours; read-out: MIC
[5] = test system: Corynebacterium dephtheriae; experiment: Antimicrobial spectrum, MIC (Table 4); assay type: cell-based; details: Corynebacterium; 1% glucose nutrient agar, 37° C., 24 or 48 hours; read-out: MIC
Corynebacterium xerosis = experiment: Antimicrobial spectrum, MIC (Table 4); assay type: cell-based; details: Corynebacterium xerosis; 1% glucose nutrient agar, 37° C., 24 or 48 hours; read-out: MIC
Mycobacterium sp. 607 = experiment: Antimicrobial spectrum, MIC (Table 4); assay type: cell-based; details: Mycobacterium, SP.607; 3% glycerol nutrient agar for acid-fast bacteria, 37° C., 24 or 48 hours; read-out: MIC
Mycobacterium phlei = experiment: Antimicrobial spectrum, MIC (Table 4); assay type: cell-based; details: Mycolicibacterium phlei; 3% glycerol nutrient agar for acid-fast bacteria, 37° C., 24 or 48 hours; read-out: MIC
Mycobacterium avium = experiment: Antimicrobial spectrum, MIC (Table 4); assay type: cell-based; details: Mycobacterium avium; 3% glycerol nutrient agar for acid-fast bacteria, 37° C., 24 or 48 hours; read-out: MIC
Nocardia asteroides = experiment: Antimicrobial spectrum, MIC (Table 4); assay type: cell-based; details: Nocardia asteroides; 37° C., 24 or 48 hours; read-out: MIC
Escherichia coli = experiment: Antimicrobial spectrum, MIC (Table 4); assay type: cell-based; details: Escherichia coli; 1% glucose nutrient agar, 37° C., 24 or 48 hours; read-out: MIC
Salmonella typhimurium = experiment: Antimicrobial spectrum, MIC (Table 4); assay type: cell-based; details: Salmonella enterica, TYPHIMURIUM; 1% glucose nutrient agar, 37° C., 24 or 48 hours; read-out: MIC
[6] = test system: Shigella dysenteriae Shiga; experiment: microbe, parasite or virus in culture; assay type: cell-based; details: Shigella dysenteriae
Klebsiella pneumoniae = experiment: Antimicrobial spectrum, MIC (Table 4); assay type: cell-based; details: Klebsiella pneumoniae; 1% glucose nutrient agar, 37° C., 24 or 48 hours; read-out: MIC
Brucella abortus = experiment: microbe, parasite or virus in culture; assay type: cell-based; details: Brucella abortus
Serratia marcescens = experiment: Antimicrobial spectrum, MIC (Table 4); assay type: cell-based; details: Serratia marcescens; 1% glucose nutrient agar, 37° C., 24 or 48 hours; read-out: MIC
Pseudomonas aeruginosa = experiment: Antimicrobial spectrum, MIC (Table 4); assay type: cell-based; details: Pseudomonas aeruginosa; 1% glucose nutrient agar, 37° C., 24 or 48 hours; read-out: MIC
Ehrlich ascites tumor = experiment: Activity against Ehrlich ascites tumor in DDY mice; assay type: in vivo; details: 1×10^5 cells, initiated 24 hours after implantation, 4 days
[7] = test system: mouse lymphocytic leukemia L1210; experiment: Effect on mouse lymphocytic leukemia L1210 in vivo; details: DBF1 mice, 1×10^5 cells intraperitoneal; 1.5 mg/kg daily for 2 days intraperitoneal, started 3 hours after implantation
Procedure: When DDY mice were implanted with 1×10^5 cells of Ehrlich ascites tumor and daily intraperitoneal treatment of saframycin A at a dose of 0.5 mg/kg was initiated 24 hours after tumor implantation for 4 days, 30% of mice were cured and survived more than 30 days. With a dose of 1.0 mg/kg, 60% of mice was cured. The effects of saframycin A by intraperitoneal treatment on mouse lymphocytic leukemia L1210 and lymphoid leukemia P388 were studied with DBF1 mice. […] With P388 tumor, the inoculum size of 1×10^6 cells was employed and the treatment was initiated after 24 hours. Saframycin A at a daily dose of 0.75 mg/kg for 10 days produced T/C of 219%. The effect of saframycin A was then studied against human tumors, two lines of uterine cervical carcinoma, melanoma, oat cell carcinoma and stomach carcinoma, heterotransplanted to nude mice.

[8] = test system: uterine cervical carcinoma; experiment: Effect against human tumors heterotransplanted to nude mice; assay type: in vivo, human tumor in nude mice; details: human tumor heterotransplanted to nude mice
stomach carcinoma = experiment: as above; assay type: in vivo, human tumor in nude mice; details: human tumor heterotransplanted to nude mice
Toxicity in mice = details: mouse, in vivo
Mucor mucedo = experiment: Antimicrobial spectrum, MIC (Table 4); details: Mucor mucedo, 48 h
Saccharomyces cerevisiae = experiment: Antimicrobial spectrum, MIC (Table 4); details: Saccharomyces cerevisiae, 48 h
Rhodotorula glutinis = experiment: Antimicrobial spectrum, MIC (Table 4); details: Rhodotorula glutinis, 48 h
Aspergillus niger = experiment: Antimicrobial spectrum, MIC (Table 4); details: Aspergillus niger, 48 h
Aspergillus oryzae = experiment: Antimicrobial spectrum, MIC (Table 4); details: Aspergillus oryzae, 48 h
Penicillium glaucum = experiment: Antimicrobial spectrum, MIC (Table 4); details: Penicillium, 48 h
[9] = test system: Trichophyton mentagrophytes; experiment: Antimicrobial spectrum, MIC (Table 4); details: Trichophyton mentagrophytes, 72 h
Candida albicans = experiment: Antimicrobial spectrum, MIC (Table 4); details: Candida albicans, 48 h
in vivo = details: mouse, ip

SMILES | MIC [1] [µg/mL] | MIC [2] [µg/mL] | MIC (Staphylococcus albus) [µg/mL] | MIC (Staphylococcus citreus) [µg/mL] | MIC (Streptococcus faecalis) [µg/mL] | MIC (Streptococcus pyogenes) [µg/mL] | MIC [3] [µg/mL] | MIC [4] [µg/mL] | MIC (Micrococcus luteus) [µg/mL] | MIC (Bacillus subtilis) [µg/mL] | MIC (Bacillus cereus) [µg/mL] | MIC [5] [µg/mL] | MIC (Corynebacterium xerosis) [µg/mL] | MIC (Mycobacterium sp. 607) [µg/mL] | MIC (Mycobacterium phlei) [µg/mL] | MIC (Mycobacterium avium) [µg/mL] | MIC (Nocardia asteroides) [µg/mL] | MIC (Escherichia coli) [µg/mL] | MIC (Salmonella typhimurium) [µg/mL] | MIC [6] [µg/mL] | also measured
COC1=C(C)C(=O)C2=C(C1=O)C1C3CC4=C(C(=O)C(OC)=C(C)C4=O)C(CNC(=O)C(C)=O)N3C(C#N)C(C2)N1C (stereo not drawn) [saframycin A] | 0.1 (≈ 0.178 µM) | 0.05 (≈ 0.0889 µM) | 0.1 (≈ 0.178 µM) | 0.1 (≈ 0.178 µM) | 6.25 (≈ 11.1 µM) | 0.78 (≈ 1.39 µM) | 6.25 (≈ 11.1 µM) | 6.25 (≈ 11.1 µM) | 0.05 (≈ 0.0889 µM) | 0.1 (≈ 0.178 µM) | 12.5 (≈ 22.2 µM) | < 0.003 | < 0.003 | 12.5 (≈ 22.2 µM) | 25 (≈ 44.4 µM) | 12.5 (≈ 22.2 µM) | 6.25 (≈ 11.1 µM) | 50 (≈ 88.9 µM) | 100 (≈ 178 µM) | 25 (≈ 44.4 µM) | MIC (Klebsiella pneumoniae): 6.25 µg/mL (≈ 11.1 µM); MIC (Brucella abortus): 6.25 µg/mL (≈ 11.1 µM); MIC (Serratia marcescens): > 100 µg/mL; MIC (Pseudomonas aeruginosa): > 100 µg/mL; mice cured and survived more than 30 days (Ehrlich ascites tumor; 0.5 mg/kg daily intraperitoneal): 30%; mice cured (Ehrlich ascites tumor; 1.0 mg/kg daily intraperitoneal): 60%; T/C (survival period of treated group over survival period of control group) [7]: 183%; activity against cervical carcinoma [8]: selectively active on cervical carcinoma and stomach carcinoma producing the inhibition of tumor growth and significant histological changes in tumor tissue; activity against stomach carcinoma (stomach carcinoma): selectively active on cervical carcinoma and stomach carcinoma producing the inhibition of tumor growth and significant histological changes in tumor tissue; LD50 (Toxicity in mice; ip): 40 mg/kg; LD50 (Toxicity in mice; iv): 12 mg/kg; MIC (Mucor mucedo): > 100 µg/mL; MIC (Saccharomyces cerevisiae): > 100 µg/mL; MIC (Rhodotorula glutinis): > 100 µg/mL; MIC (Aspergillus niger): > 100 µg/mL; MIC (Aspergillus oryzae): > 100 µg/mL; MIC (Penicillium glaucum): 50 µg/mL (≈ 88.9 µM); MIC [9]: > 100 µg/mL; MIC (Candida albicans): > 100 µg/mL
COC1=C(C)C(=O)C2=C(C1=O)C1C3CC4=C(C(=O)C(OC)=C(C)C4=O)C(CNC(=O)C(C)=O)N3CC(C2)N1C (stereo not drawn) [saframycin B] | 12.5 (≈ 23.3 µM) | 1.56 (≈ 2.9 µM) | 12.5 (≈ 23.3 µM) | 12.5 (≈ 23.3 µM) | > 100 | 12.5 (≈ 23.3 µM) | 25 (≈ 46.5 µM) | 100 (≈ 186 µM) | 1.56 (≈ 2.9 µM) | 25 (≈ 46.5 µM) | 100 (≈ 186 µM) | 0.4 (≈ 0.744 µM) | 12.5 (≈ 23.3 µM) | 100 (≈ 186 µM) | 50 (≈ 93 µM) | 100 (≈ 186 µM) | 50 (≈ 93 µM) | > 100 | > 100 | > 100 | MIC (Klebsiella pneumoniae): 12.5 µg/mL (≈ 23.3 µM); MIC (Brucella abortus): 50 µg/mL (≈ 93 µM); MIC (Serratia marcescens): > 100 µg/mL; MIC (Pseudomonas aeruginosa): > 100 µg/mL; MTD (in vivo): 250 mg/kg; MIC (Mucor mucedo): > 100 µg/mL; MIC (Saccharomyces cerevisiae): > 100 µg/mL; MIC (Rhodotorula glutinis): > 100 µg/mL; MIC (Aspergillus niger): > 100 µg/mL; MIC (Aspergillus oryzae): > 100 µg/mL; MIC (Penicillium glaucum): > 100 µg/mL; MIC [9]: > 100 µg/mL; MIC (Candida albicans): > 100 µg/mL
